From patent publication US20110039721A1, “METHOD FOR PREDICTION ABOUT CARCINOGENICITY OF SUBSTANCE IN RODENT” (Chemicals Evaluation and Research Institute, priority 2007, published 2011)

Tested on: mRNA expressed from the genes (A) to (D) in rat liver
Experiment: Behavior of genes (mRNA expression level, oligo-DNA microarray) in rat liver after 28-day oral administration
Type: in vivo
Protocol: A test solution was prepared by dissolving each of the carcinogens and the non-carcinogens shown in Tables 2 to 6 in the corresponding solvent shown in Tables 2 to 6. Each of the thus prepared test solutions and the solvents used for the preparation was administered by oral gavage to rats in each group. As the rats, male rats (F344 SPF rats) at 5 weeks of age obtained from Charles River Laboratories Japan, Inc. were used. The animals were divided into groups, each containing four individuals. The volume of the solvent administered to the vehicle control group was set to the same volume as that of the test solution administered to the carcinogen administration group or the non-carcinogen administration group. The administration of the test solution or the solvent was performed once daily for 28 days. Apiece was excised from the liver of each of the rats after a lapse of 28 days from the initiation of the administration, and the total RNA was extracted and purified.
The expression level of mRNA was compared between each of the chemical substance administration groups and the corresponding vehicle control group, and genes that satisfy the requirements described in (A) to (D) were selected, respectively.
The case where the expression level of mRNA in the carcinogen administration group or the non-carcinogen administration group is 1.5 times or more or 1/1.5 or less of the expression level of the corresponding mRNA expressed in the control group was determined to be significant. In this connection, the determination as to whether or not the change is significant was performed by taking into consideration the direction of increase or decrease in the expression level. In the case where the direction of increase or decrease is different as compared with the case where another carcinogen was administered, the change was determined to be not significant.

[1] = gene group (A), Unigene No. Rn.167075
[2] = gene group (C), Unigene No. Rn.120914
[3] = (C), Unigene Rn.120914, defined direction +, rat liver, oral once daily 28 days

O=C1O[C@H]([C@@H](O)CO)C(O)=C1O [TS010, L-Ascorbic acid]
Behavior of gene caused by administration of chemical substance, Gene No. 4846 (gene group (A), Unigene No. Rn.144554): −
Behavior of gene caused by administration of chemical substance, Gene No. 2026 [1]: −
Behavior of gene caused by administration of chemical substance, Gene No. 4218 [1]: −
Behavior of gene caused by administration of chemical substance, Gene No. 6182 (gene group (A), Unigene No. Rn.5834): −
Behavior of gene caused by administration of chemical substance, Gene No. 5600 (gene group (A), Unigene No. Rn.9836): −
Behavior of gene caused by administration of chemical substance, Gene No. 1494 (gene group (B), Unigene No. Rn.1430): −
Behavior of gene caused by administration of chemical substance, Gene No. 2045 (gene group (B), Unigene No. Rn.19329): −
Behavior of gene caused by administration of chemical substance, Gene No. 2203 (gene group (B), Unigene No. Rn.21240): −
Behavior of gene caused by administration of chemical substance, Gene No. 533 (gene group (C), Unigene No. Rn.106184): −
Behavior of gene caused by administration of chemical substance, Gene No. 725 (gene group (C), Unigene No. Rn.108075): −
Behavior of gene caused by administration of chemical substance, Gene No. 1163 (gene group (C), Unigene No. Rn.11766): −
Behavior of gene caused by administration of chemical substance, Gene No. 4973 (gene group (C), Unigene No. Rn.118529): −
Behavior of gene caused by administration of chemical substance, Gene No. 4095 (gene group (C), Unigene No. Rn.119024): −
Behavior of gene caused by administration of chemical substance, Gene No. 1334 [2]: −
Behavior of gene caused by administration of chemical substance, Gene No. 6620 [2]: −
Behavior of gene caused by administration of chemical substance, Gene No. 6303 (gene group (C), Unigene No. Rn.123063): −
Behavior of gene caused by administration of chemical substance, Gene No. 5878 (gene group (C), Unigene No. Rn.143213): −
Behavior of gene caused by administration of chemical substance, Gene No. 1131 (gene group (C), Unigene No. Rn.144946): +
Behavior of gene caused by administration of chemical substance, Gene No. 1562 (gene group (C), Unigene No. Rn.14744): −
Behavior of gene caused by administration of chemical substance, Gene No. 1741 (gene group (C), Unigene No. Rn.1647): −
Behavior of gene caused by administration of chemical substance, Gene No. 893 (gene group (C), Unigene No. Rn.164817): −
Behavior of gene caused by administration of chemical substance, Gene No. 6026 (gene group (C), Unigene No. Rn.167685): −
Behavior of gene caused by administration of chemical substance, Gene No. 154 (gene group (C), Unigene No. Rn.185941): −
Behavior of gene caused by administration of chemical substance, Gene No. 1993 (gene group (C), Unigene No. Rn.18728): −
Behavior of gene caused by administration of chemical substance, Gene No. 813 (gene group (C), Unigene No. Rn.201760): −
Behavior of gene caused by administration of chemical substance, Gene No. 2494 (gene group (C), Unigene No. Rn.23969): −
Behavior of gene caused by administration of chemical substance, Gene No. 2546 (gene group (C), Unigene No. Rn.24561): −
Behavior of gene caused by administration of chemical substance, Gene No. 3776 (gene group (C), Unigene No. Rn.43232): −
Behavior of gene caused by administration of chemical substance, Gene No. 3929 (gene group (C), Unigene No. Rn.4620): −
Behavior of gene caused by administration of chemical substance, Gene No. 1119 (gene group (C), Unigene No. Rn.9757): −
Behavior of gene caused by administration of chemical substance, Gene No. 6742 (gene group (C), Unigene No. Rn.9779): −
Behavior of gene caused by administration of chemical substance, Gene No. 5634 (gene group (C), Unigene No. Rn.9862): −
Behavior of gene caused by administration of chemical substance, Gene No. 5726 (gene group (D), Unigene No. Rn.9939): −

CC(C)[N+](=O)[O-] [TS013, 2-Nitropropane]
Behavior of gene caused by administration of chemical substance, Gene No. 4846 ((A), Unigene Rn.144554, defined direction +, rat liver, oral once daily 28 days): +
Behavior of gene caused by administration of chemical substance, Gene No. 4218 ((A), Unigene Rn.167075, defined direction +, rat liver, oral once daily 28 days, significant = 1.5 times or more or 1/1.5 or less of control): +
Behavior of gene caused by administration of chemical substance, Gene No. 2026 ((A), Unigene Rn.167075, defined direction −, rat liver, oral once daily 28 days): +
Behavior of gene caused by administration of chemical substance, Gene No. 6182 ((A), Unigene Rn.5834, defined direction +, rat liver, oral once daily 28 days): +
Behavior of gene caused by administration of chemical substance, Gene No. 5600 ((A), Unigene Rn.9836, defined direction +, rat liver, oral once daily 28 days): +
Behavior of gene caused by administration of chemical substance, Gene No. 1494 ((B), Unigene Rn.1430, defined direction −, rat liver, oral once daily 28 days): +
Behavior of gene caused by administration of chemical substance, Gene No. 2045 ((B), Unigene Rn.19329, defined direction +, rat liver, oral once daily 28 days): −
Behavior of gene caused by administration of chemical substance, Gene No. 2203 ((B), Unigene Rn.21240, defined direction +, rat liver, oral once daily 28 days): −
Behavior of gene caused by administration of chemical substance, Gene No. 533 ((C), Unigene Rn.106184, defined direction +, rat liver, oral once daily 28 days): +
Behavior of gene caused by administration of chemical substance, Gene No. 725 ((C), Unigene Rn.108075, defined direction −, rat liver, oral once daily 28 days): +
Behavior of gene caused by administration of chemical substance, Gene No. 1163 ((C), Unigene Rn.11766, defined direction +, rat liver, oral once daily 28 days): −
Behavior of gene caused by administration of chemical substance, Gene No. 4973 ((C), Unigene Rn.118529, defined direction −, rat liver, oral once daily 28 days): +
Behavior of gene caused by administration of chemical substance, Gene No. 4095 ((C), Unigene Rn.119024, defined direction −, rat liver, oral once daily 28 days): −
Behavior of gene caused by administration of chemical substance, Gene No. 1334 [3]: −
Behavior of gene caused by administration of chemical substance, Gene No. 6620 [3]: −
Behavior of gene caused by administration of chemical substance, Gene No. 6303 ((C), Unigene Rn.123063, defined direction −, rat liver, oral once daily 28 days): +
Behavior of gene caused by administration of chemical substance, Gene No. 5878 ((C), Unigene Rn.143213, defined direction −, rat liver, oral once daily 28 days): −
Behavior of gene caused by administration of chemical substance, Gene No. 1131 ((C), Unigene Rn.144946, defined direction −, rat liver, oral once daily 28 days): −
Behavior of gene caused by administration of chemical substance, Gene No. 1562 ((C), Unigene Rn.14744, defined direction −, rat liver, oral once daily 28 days): +
Behavior of gene caused by administration of chemical substance, Gene No. 1741 ((C), Unigene Rn.1647, defined direction −, rat liver, oral once daily 28 days): −
Behavior of gene caused by administration of chemical substance, Gene No. 893 ((C), Unigene Rn.164817, defined direction +, rat liver, oral once daily 28 days): −
Behavior of gene caused by administration of chemical substance, Gene No. 6026 ((C), Unigene Rn.167685, defined direction −, rat liver, oral once daily 28 days): −
Behavior of gene caused by administration of chemical substance, Gene No. 154 ((C), Unigene Rn.185941, defined direction −, rat liver, oral once daily 28 days): +
Behavior of gene caused by administration of chemical substance, Gene No. 1993 ((C), Unigene Rn.18728, defined direction −, rat liver, oral once daily 28 days): +
Behavior of gene caused by administration of chemical substance, Gene No. 813 ((C), Unigene Rn.201760, defined direction +, rat liver, oral once daily 28 days): −
Behavior of gene caused by administration of chemical substance, Gene No. 2494 ((C), Unigene Rn.23969, defined direction +, rat liver, oral once daily 28 days): −
Behavior of gene caused by administration of chemical substance, Gene No. 2546 ((C), Unigene Rn.24561, defined direction −, rat liver, oral once daily 28 days): −
Behavior of gene caused by administration of chemical substance, Gene No. 3776 ((C), Unigene Rn.43232, defined direction −, rat liver, oral once daily 28 days): −
Behavior of gene caused by administration of chemical substance, Gene No. 3929 ((C), Unigene Rn.4620, defined direction +, rat liver, oral once daily 28 days): −
Behavior of gene caused by administration of chemical substance, Gene No. 1119 ((C), Unigene Rn.9757, defined direction +, rat liver, oral once daily 28 days): −
Behavior of gene caused by administration of chemical substance, Gene No. 6742 ((C), Unigene Rn.9779, defined direction +, rat liver, oral once daily 28 days): −
Behavior of gene caused by administration of chemical substance, Gene No. 5634 ((C), Unigene Rn.9862, defined direction −, rat liver, oral once daily 28 days): −
Behavior of gene caused by administration of chemical substance, Gene No. 5726 ((D), Unigene Rn.9939, defined direction −, rat liver, oral once daily 28 days): −
